Measured values published in publication PMC8121435, “Cork-in-bottle mechanism of inhibitor binding to mammalian complex I” (Science Advances, 2021).

Legend:
mouse complex I = target: T1, mouse complex I (Mus musculus, UniProt P03888+Q91WD5+Q9DC70); experiment: NADH:decylubiquinone oxidoreduction by purified mouse complex I; type: biochemical
T1 construct: from tissue; host or cells: mouse (C57BL/6) heart mitochondria
Protocol: (§1) All catalytic activity assays were conducted at 32°C in 96-well plates using a Molecular Devices Spectramax 384 plus plate reader. Catalysis was initiated by addition of 200 μM NADH and monitored at 340 and 380 nm (ε340–380 = 4.81 mM^−1 cm^−1). Linear rates were measured for all assays, inhibitors were added from dimethyl sulfoxide stock solutions as required, and inhibitor-insensitive rates (using either 1 μM piericidin A or 1.4 μM IACS-2858) were subtracted from each measured rate. Membrane samples were prepared as described previously ([17], [20], [59], [60]), diluted to 20 μg ml^−1 in 10 mM tris-SO4 (pH 7.5) and 250 mM sucrose, and supplemented with 3 μM horse heart cytochrome c (except for P. denitrificans, for which the activity is unaffected by the addition). Mouse, bovine, and yeast (Y. lipolytica) complex I were purified as described previously ([17], [20], [59]); diluted to 0.5 nM in 20 mM tris-HCl (pH 7.5), 0.15% asolectin, and 0.15% CHAPS; and assayed using either 200 μM dQ or 200 μM ubiquinone-1 (Sigma-Aldrich). Complex I was purified from P. denitrificans strain Pd1222 ([61]) and provided by O. D. Jarman (MRC Mitochondrial Biology Unit, University of Cambridge); it was assayed likewise but in 10 mM MES-HCl (pH 6.5), 25 mM NaCl, and 2 mM CaCl2. Bovine SMPs were prepared as described previously ([61]) and diluted to 20 μg ml^−1 in 10 mM tris-SO4 (pH 7.5) and 250 mM sucrose for FET and RET assays. The RET assay was initiated using 1 mM NAD^+, 1 mM ATP, 10 mM succinate, 1 mM cyanide, and 2 mM MgSO4, in the absence of NADH. AOX from Trypanosoma brucei brucei was prepared as described previously ([23]). Complex I proteoliposomes were assayed using 10 mM Mops-KOH (pH 7.5), 50 mM KCl, and AOX (10 μg ml^−1).

bovine complex I = target: T2, bovine complex I (Bos taurus, UniProt P03887+P17694+P42026); experiment: NADH:decylubiquinone oxidoreduction by purified bovine complex I; type: biochemical; settings: purified B. taurus complex I, dQ; ± SE
T2 construct: Complex I from bovine heart were prepared; from tissue; host or cells: bovine heart mitochondria
Protocol: as §1, with “Bovine SMPs were prepared as described previously ([61]) and diluted to 20 μg ml^−1 in 10 mM tris-SO4 (pH 7.5) and 250 mM sucrose for FET and RET assays. The RET assay was initiated using 1 mM NAD^+, 1 mM ATP, 10 mM succinate, 1 mM cyanide, and 2 mM MgSO4, in the absence of NADH. AOX from Trypanosoma brucei brucei was prepared as described previously ([23]). Complex I proteoliposomes were assayed using 10 mM Mops-KOH (pH 7.5), 50 mM KCl, and AOX (10 μg ml^−1).” left out

[1] = target: T3, yeast (Y. lipolytica) complex I (Yarrowia lipolytica, UniProt Q9B6E8+Q9UUT7+Q9UUU1); experiment: NADH:decylubiquinone oxidoreduction by purified Y. lipolytica complex I; type: biochemical
T3 sequence (Q9B6E8 1-341): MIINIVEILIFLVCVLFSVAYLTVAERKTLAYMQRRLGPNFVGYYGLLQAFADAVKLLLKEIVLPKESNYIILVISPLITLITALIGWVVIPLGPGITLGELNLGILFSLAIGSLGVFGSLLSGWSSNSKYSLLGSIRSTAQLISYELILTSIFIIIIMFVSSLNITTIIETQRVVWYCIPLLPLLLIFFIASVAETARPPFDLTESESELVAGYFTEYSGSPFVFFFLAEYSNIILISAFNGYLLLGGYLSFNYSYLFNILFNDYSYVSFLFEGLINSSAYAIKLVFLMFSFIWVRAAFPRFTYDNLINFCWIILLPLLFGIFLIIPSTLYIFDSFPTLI
T3 sequence (Q9UUU1 22-466): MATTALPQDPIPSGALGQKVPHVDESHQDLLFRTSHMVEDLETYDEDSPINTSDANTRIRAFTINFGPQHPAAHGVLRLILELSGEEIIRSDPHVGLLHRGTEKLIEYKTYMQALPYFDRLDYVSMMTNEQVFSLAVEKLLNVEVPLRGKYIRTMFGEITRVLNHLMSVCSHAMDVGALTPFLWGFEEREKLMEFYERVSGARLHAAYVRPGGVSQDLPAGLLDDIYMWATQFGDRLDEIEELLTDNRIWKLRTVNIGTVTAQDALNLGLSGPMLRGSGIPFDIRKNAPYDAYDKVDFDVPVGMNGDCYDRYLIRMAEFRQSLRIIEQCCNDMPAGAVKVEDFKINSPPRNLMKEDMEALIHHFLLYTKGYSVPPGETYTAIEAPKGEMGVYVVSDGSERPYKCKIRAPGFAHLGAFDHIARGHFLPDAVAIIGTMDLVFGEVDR
T3 sequence (Q9UUT7 28-210): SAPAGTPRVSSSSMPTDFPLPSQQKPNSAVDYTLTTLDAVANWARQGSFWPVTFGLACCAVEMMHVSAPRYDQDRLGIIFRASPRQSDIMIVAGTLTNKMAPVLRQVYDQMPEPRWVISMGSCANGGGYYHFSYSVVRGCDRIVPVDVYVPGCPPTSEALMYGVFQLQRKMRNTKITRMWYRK
Protocol: as §1, with “Bovine SMPs were prepared as described previously ([61]) and diluted to 20 μg ml^−1 in 10 mM tris-SO4 (pH 7.5) and 250 mM sucrose for FET and RET assays. The RET assay was initiated using 1 mM NAD^+, 1 mM ATP, 10 mM succinate, 1 mM cyanide, and 2 mM MgSO4, in the absence of NADH. AOX from Trypanosoma brucei brucei was prepared as described previously ([23]). Complex I proteoliposomes were assayed using 10 mM Mops-KOH (pH 7.5), 50 mM KCl, and AOX (10 μg ml^−1).” left out

[2] = target: T4, P. denitrificans complex I (Paracoccus denitrificans, UniProt P29916+P29918+P29920); experiment: NADH:decylubiquinone oxidoreduction by purified P. denitrificans complex I; type: biochemical; settings: dQ, pH 6.5
T4 construct: Complex I was purified from P. denitrificans strain Pd1222; endogenous in cells; host or cells: P. denitrificans strain Pd1222
Protocol: as §1, with “Bovine SMPs were prepared as described previously ([61]) and diluted to 20 μg ml^−1 in 10 mM tris-SO4 (pH 7.5) and 250 mM sucrose for FET and RET assays. The RET assay was initiated using 1 mM NAD^+, 1 mM ATP, 10 mM succinate, 1 mM cyanide, and 2 mM MgSO4, in the absence of NADH. AOX from Trypanosoma brucei brucei was prepared as described previously ([23]). Complex I proteoliposomes were assayed using 10 mM Mops-KOH (pH 7.5), 50 mM KCl, and AOX (10 μg ml^−1).” left out

[3] = target: T5, complex I in mitochondrial membranes (Mus musculus, UniProt P03888+Q91WD5+Q9DC70); experiment: NADH oxidation in mouse mitochondrial membranes; type: biochemical; settings: M. musculus membranes 20 μg ml−1; ± SE
T5 construct: from tissue; host or cells: mouse (C57BL/6) heart mitochondria
Protocol: as §1, with “Bovine SMPs were prepared as described previously ([61]) and diluted to 20 μg ml^−1 in 10 mM tris-SO4 (pH 7.5) and 250 mM sucrose for FET and RET assays. The RET assay was initiated using 1 mM NAD^+, 1 mM ATP, 10 mM succinate, 1 mM cyanide, and 2 mM MgSO4, in the absence of NADH. AOX from Trypanosoma brucei brucei was prepared as described previously ([23]). Complex I proteoliposomes were assayed using 10 mM Mops-KOH (pH 7.5), 50 mM KCl, and AOX (10 μg ml^−1).” left out

[4] = target: T6, complex I in mitochondrial membranes (Bos taurus, UniProt P03887+P17694+P42026); experiment: NADH oxidation in bovine mitochondrial membranes; type: biochemical; settings: B. taurus membranes 20 μg ml−1; ± SE
T6 construct: Complex I from bovine heart were prepared; from tissue; host or cells: bovine heart mitochondria
Protocol: as §1, with “Bovine SMPs were prepared as described previously ([61]) and diluted to 20 μg ml^−1 in 10 mM tris-SO4 (pH 7.5) and 250 mM sucrose for FET and RET assays. The RET assay was initiated using 1 mM NAD^+, 1 mM ATP, 10 mM succinate, 1 mM cyanide, and 2 mM MgSO4, in the absence of NADH. AOX from Trypanosoma brucei brucei was prepared as described previously ([23]). Complex I proteoliposomes were assayed using 10 mM Mops-KOH (pH 7.5), 50 mM KCl, and AOX (10 μg ml^−1).” left out

[5] = target: T7, complex I in mitochondrial membranes (Yarrowia lipolytica, UniProt Q9B6E8+Q9UUT7+Q9UUU1); experiment: NADH oxidation in Y. lipolytica mitochondrial membranes; type: biochemical
T7 sequence (Q9B6E8 1-341): T3 sequence (Q9B6E8 1-341)
T7 sequence (Q9UUU1 22-466): T3 sequence (Q9UUU1 22-466)
T7 sequence (Q9UUT7 28-210): T3 sequence (Q9UUT7 28-210)
Protocol: as §1, with “Bovine SMPs were prepared as described previously ([61]) and diluted to 20 μg ml^−1 in 10 mM tris-SO4 (pH 7.5) and 250 mM sucrose for FET and RET assays. The RET assay was initiated using 1 mM NAD^+, 1 mM ATP, 10 mM succinate, 1 mM cyanide, and 2 mM MgSO4, in the absence of NADH. AOX from Trypanosoma brucei brucei was prepared as described previously ([23]). Complex I proteoliposomes were assayed using 10 mM Mops-KOH (pH 7.5), 50 mM KCl, and AOX (10 μg ml^−1).” left out

[6] = target: T8, complex I in bacterial membranes (Paracoccus denitrificans, UniProt P29916+P29918+P29920); experiment: NADH oxidation in P. denitrificans bacterial membranes; type: biochemical; settings: P. denitrificans membranes 20 μg ml−1
T8 construct: Complex I was purified from P. denitrificans strain Pd1222; endogenous in cells; host or cells: P. denitrificans strain Pd1222
Protocol: as §1, with “Bovine SMPs were prepared as described previously ([61]) and diluted to 20 μg ml^−1 in 10 mM tris-SO4 (pH 7.5) and 250 mM sucrose for FET and RET assays. The RET assay was initiated using 1 mM NAD^+, 1 mM ATP, 10 mM succinate, 1 mM cyanide, and 2 mM MgSO4, in the absence of NADH. AOX from Trypanosoma brucei brucei was prepared as described previously ([23]). Complex I proteoliposomes were assayed using 10 mM Mops-KOH (pH 7.5), 50 mM KCl, and AOX (10 μg ml^−1).” left out

complex I in bovine SMPs [7] = target: T9, complex I in bovine SMPs (Bos taurus, UniProt P03887+P17694+P42026); experiment: Forward electron transport (NADH oxidation) in bovine heart submitochondrial particles; type: biochemical; settings: NADH oxidation rate, ± SE
T9 construct: Complex I from bovine heart were prepared; from tissue; host or cells: bovine heart mitochondria
Protocol: as §1, with “Bovine SMPs were prepared as described previously ([61]) and diluted to 20 μg ml^−1 in 10 mM tris-SO4 (pH 7.5) and 250 mM sucrose for FET and RET assays. The RET assay was initiated using 1 mM NAD^+, 1 mM ATP, 10 mM succinate, 1 mM cyanide, and 2 mM MgSO4, in the absence of NADH. AOX from Trypanosoma brucei brucei was prepared as described previously ([23]). Complex I proteoliposomes were assayed using 10 mM Mops-KOH (pH 7.5), 50 mM KCl, and AOX (10 μg ml^−1).” left out

complex I in bovine SMPs [8] = target: T9, complex I in bovine SMPs; experiment: Reverse electron transport (succinate oxidation-driven NAD+ reduction) in bovine heart submitochondrial particles; type: biochemical
Protocol: as §1

[9] = system: human cell line models and representative cell lines from mammalian species; design: method as in PMID 29892070; settings: mouse, monkey, dog and rat cell lines; cited from earlier work
H292 cells = system: H292 cells; design: method as in PMID 29892070; settings: Leu55 ND1 mutation to Phe in H292 cells; cited from earlier work
human DHODH = system: human DHODH; design: method as in PMID 15044733, PMID 9313772; settings: His-to-Ala mutation of the π-stacking partner; cited from earlier work

Cc1nc(-c2nc(-c3ccc(OC(F)(F)F)cc3)no2)nn1Cc1cccc(N2CCC(S(C)(=O)=O)CC2)c1 [IACS-010759]
higher IC50 value than IACS-2858 (mouse complex I): 17 fold | IC50 (mouse complex I; purified mouse complex I ~0.5 nM, 200 μM dQ, 200 μM NADH, 32°C, Hill slope constrained to −1, ± SE): 0.0479 µM | IC50 (bovine complex I): 0.739 ± 0.065 µM | IC50 [1]: 6.3 ± 0.8 µM | IC50 [2]: ~22000 µM | IC50 [3]: 0.0069 ± 0.0004 µM | IC50 [4]: 0.113 ± 0.004 µM | IC50 [5]: ~170 µM | IC50 [6]: ~1600 µM | IC50 (complex I in bovine SMPs [7]): 0.325 ± 0.025 µM | IC50 (complex I in bovine SMPs [8]; bovine SMPs, succinate oxidation-driven NAD+ reduction rate, ± SE): 0.0123 ± 0.0006 µM | inhibition of RET favoured over FET (complex I in bovine SMPs [8]; bovine heart SMPs, RET versus FET): more than 25 fold | variation in IC50 across cell lines [9]: up to 230 fold | loss of sensitivity (H292 cells): up to 70 fold

Cc1c(-c2ccc(-c3ccccc3F)cc2)nc2ccc(F)cc2c1C(=O)O [brequinar]
reduction of sensitivity (human DHODH): more than 100 fold
